From PMC5785958, “New role of phenothiazine derivatives as peripherally acting CB1 receptor antagonizing anti-obesity agents” (Scientific Reports, 2018)

Experiments:
CB1 receptor = target: T1, CB1 receptor (Rattus norvegicus, UniProt P20272); assay: In vivo CB1 receptor antagonistic activity against WIN-55212-2 hyperphagia; conditions: 24 h fasted rats, test compound 10 mg/kg p.o., WIN-55212-2 2 mg/kg i.p.
T1 construct: from tissue; host or cells: whole living animal (male Wistar rat); receptor endogenous in central and peripheral tissues
Experimental: Here also, the quantity of feed consumed by the control group animals was taken as 100%.
In another set of experiments, in vivo CB1 receptor antagonistic activity of the test compounds was assessed.

[1] = PAMPA-BBB in vitro permeability assay; format: in vitro ADME, porcine; parameters: key to Prediction (penetration in CNS): CNS- indicates low passive CNS permeation; conditions: for Prediction (penetration in CNS): from PAMPA-BBB Pe, Pe less than 3.8 × 10^−6 cm s^−1 = low BBB permeation; for Papp at 120 min, 100 µg/ml: pig, PAMPA-BBB, porcine brain lipid, PBS/ethanol (70:30), 25 °C, mean ± SEM of three experiments, read-out: Pe
Experimental: As discussed above, BBB permeation of the available CB1 receptor antagonists limits their therapeutic utility. A successful CB1 receptor antagonist to be used as anti-obesity agent must be devoid of BBB permeability. […] In this study, the ability of the test compounds to cross the BBB was determined by the well established in vitro model PAMPA-BBB assay. This simple and rapid model has the advantage to predict passive BBB permeation with high accuracy[57],[58]. The in vitro permeability (Pe) of the test compounds through the lipid extract of porcine brain was determined in PBS/ethanol (70:30).
To assess the in vivo brain permeability potential of the test compounds, PAMPA assay for BBB was performed as reported by Di. et al.[57]. The donor microplate (polyvinylidene fluoride (PVDF) membrane, diameter 25 mm, pore size 0.45 µm Millipore) and the acceptor microplate were used for the experiment. The acceptor microplate was filled with 200 µl phosphate buffer saline (PBS) and ethanol in the ratio of 70:30 whereas the donor microplate filter surface was impregnated with porcine brain lipid (Avanti Polar Lipids) in dodecane (Sigma) (4 µl of 20 mg/ml). 200 µl of the test compound (100 µg/ml in PBS/ethanol) was added to the donor well. A sandwich was formed by placing the donor plate carefully on the acceptor plate, and the plates were kept undisturbed for 120 min at 25 °C. The donor plate was carefully detached after the incubation period and concentration of the test compound in the acceptor wells was determined using UV spectroscopy. Each sample was analyzed in four wells at five different wavelengths, and at least in three independent runs. Assay validation was performed by using nine commercial quality standard drugs of known BBB permeability[75] in which the reported permeability values of the standards were compared with their experimental permeability values, which gave a linear relationship, Pe(exp.) = 1.171Pe(bibl.) + 1.489 (R^2 = 0.983)[57],[58].

Wistar rats = assay: Acute hypophagic response in 24 h food-deprived rats; format: in vivo, rat; conditions: for effect on food intake (in words): 2 h; for food intake (control = 100%): 10 mg/kg
Experimental: As a preliminary screening, the synthesized compounds were evaluated for acute hypophagia in rats and the results are summarized in Fig. 5. Twenty four hour food deprived Wistar rats were given weighed amounts of food pellets after administration of the test compounds. Quantum of food consumed by the control group of animals was considered as 100%.
Male Wistar rats weighing 200–250 g were used in the present study to assess the acute hypophagic response. Animals were housed individually in a plexi-glass cage in a temperature and humidity controlled room with a 12 h light/dark cycle. Standard chow pellets and water were made available ad libitum. Animals were handled daily for a week before performing the actual experiments. The animal study protocol was approved by the Institutional Animal Ethics Committee (IAEC) of Faculty of Pharmacy, The Maharaja Sayajirao University of Baroda (Approval no. MSU/IAEC/2014-15/1401). The experiments were conducted in accordance to the guidelines of CPCSEA (Committee for the Purpose of Control and Supervision of Experiments on Animals), Ministry of Environment & Forests, Govt. of India. We tried our best to reduce the number of animals and their suffering.
The acute effect of the synthesized test compounds on feeding behavior was assessed in 24 h food-deprived animals. Before performing the experiments, the bedding material was removed from the cage. The animals were deprived of feed for 24 h with free access to water. The fasted animals were administered with the test compounds (10 mg/kg, p.o.). After 30 min of administration, weighed amounts of food pellets were served to the animals. Amount of food pellets and food spillage remaining after 2 h were weighed to find out the amount of food consumed by the animals.

[2] = parameters: method as in PMID 20664173; conditions: cited from earlier work
CB1R = test system: CB1R; parameters: method as in PMID 20652930; conditions: read-out: CB1R antagonist activity EC50; cited from earlier work
[3] = 24 h fasted male Wistar rats, 10 mg/kg p.o.
[4] = 24 h fasted male Wistar rats, 10 mg/kg p.o., food served after 30 min, intake over 2 h

T1 sequence (P20272 whole entry): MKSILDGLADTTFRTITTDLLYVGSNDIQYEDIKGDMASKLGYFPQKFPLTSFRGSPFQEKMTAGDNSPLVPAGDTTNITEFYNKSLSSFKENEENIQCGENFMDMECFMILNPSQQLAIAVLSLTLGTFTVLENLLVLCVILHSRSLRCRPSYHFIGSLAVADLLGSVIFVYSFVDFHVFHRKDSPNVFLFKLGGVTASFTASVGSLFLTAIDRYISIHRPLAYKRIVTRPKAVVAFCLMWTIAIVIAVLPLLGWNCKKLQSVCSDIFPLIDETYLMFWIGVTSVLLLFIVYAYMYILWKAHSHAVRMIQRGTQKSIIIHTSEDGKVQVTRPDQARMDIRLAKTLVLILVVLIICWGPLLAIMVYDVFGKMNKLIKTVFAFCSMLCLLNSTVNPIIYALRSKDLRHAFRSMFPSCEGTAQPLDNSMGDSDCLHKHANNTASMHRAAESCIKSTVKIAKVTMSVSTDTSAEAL

| SMILES | effect on hyperphagic effect of WIN-55212-2 (in words) (CB1 receptor) | Prediction (penetration in CNS) [1] | Papp at 120 min, 100 µg/ml [1] [nm/s] | melting point [°C] | effect on food intake (in words) (Wistar rats; [3]) | food intake (control = 100%) (Wistar rats; [4]) | food intake (control = 100%) (Wistar rats; po) [%] | brain penetration (in words) [2] | EC50 (CB1R) [nM] |
| --- | --- | --- | --- | --- | --- | --- | --- | --- | --- |
| Nn1c(SCC(=O)N2c3ccccc3Sc3ccc(Cl)cc32)nnc1-c1ccncc1 [Compound 34, 2-(4-Amino-5-(4-pyridyl)-4H-1,2,4-triazol-3-ylthio)-1-(2-chloro-10H-phenothiazin-10-yl)ethanone] | suppressed the hyperphagic effect of WIN-55212-2 | CNS- | 20.9 ± 8.2 | 225 to 227 | significant hypophagic activity | – | – | – | – |
| COc1ccc2c(c1)N(C(=O)CSc1ncc(C#N)c(N)n1)c1ccccc1S2 [Compound 23, 4-Amino-2-(2-(2-methoxy-10H-phenothiazin-10-yl)-2-oxoethylthio)pyrimidine-5-carbonitrile] | suppressed the hyperphagic effect of WIN-55212-2 | CNS- | 30.8 ± 1.6 | 215 to 217 | significant hypophagic activity | 19–43% | 19 | – | – |
| Cc1c(C(=O)NN2CCS(=O)(=O)CC2)nn(-c2ccc(Cl)cc2Cl)c1-c1ccc(C#CCCC#N)cc1 [AM-6545] | – | – | – | – | – | – | – | limited brain penetration | – |
| CCOC(=O)c1cnc(SCC(=O)N2c3ccccc3Sc3ccc(C(F)(F)F)cc32)nc1N [Compound 25, Ethyl 4-amino-2-(2-(2-trifluoromethyl-10H-phenothiazin-10-yl)-2-oxoethylthio)-pyrimidine-5-carboxylate] | suppressed the hyperphagic effect of WIN-55212-2 | CNS- | 27.2 ± 1.9 | 148 to 151 | significant hypophagic activity | 19–43% | 37 | – | – |
| CCc1c(C(=O)NN2CCCCC2)nn(-c2ccc(Cl)cc2Cl)c1-c1ccc(C#Cc2ccc(C(F)(F)F)cc2)s1 [TM38837] | – | – | – | – | – | – | – | – | 8.5 |
| CCOC(=O)c1cnc(SCC(=O)N2c3ccccc3Sc3ccc(OC)cc32)nc1N [Compound 27, Ethyl 4-amino-2-(2-(2-methoxy-10H-phenothiazin-10-yl)-2-oxoethylthio)pyrimidine-5-carboxylate] | suppressed the hyperphagic effect of WIN-55212-2 | CNS- | 28 ± 5.8 | 104 to 106 | significant hypophagic activity | 19–43% | 19 | – | – |
